Test results as given in ChEMBL document CHEMBL5212743, “Selectivity Literature for EUbOPEN Chemogenomics Library wave 3” (2023).
Values belong to the compound of their own block, whether it stands above or below them.

What was measured:
[1] = target: T1, Cytoplasmic tyrosine-protein kinase BMX (Homo sapiens) (UniProt P51813); assay: Selectivity interaction (KinomeScan (DiscoverX)) EUB0000320b BMX; conditions: at 1 µM
T1 sequence (whole entry): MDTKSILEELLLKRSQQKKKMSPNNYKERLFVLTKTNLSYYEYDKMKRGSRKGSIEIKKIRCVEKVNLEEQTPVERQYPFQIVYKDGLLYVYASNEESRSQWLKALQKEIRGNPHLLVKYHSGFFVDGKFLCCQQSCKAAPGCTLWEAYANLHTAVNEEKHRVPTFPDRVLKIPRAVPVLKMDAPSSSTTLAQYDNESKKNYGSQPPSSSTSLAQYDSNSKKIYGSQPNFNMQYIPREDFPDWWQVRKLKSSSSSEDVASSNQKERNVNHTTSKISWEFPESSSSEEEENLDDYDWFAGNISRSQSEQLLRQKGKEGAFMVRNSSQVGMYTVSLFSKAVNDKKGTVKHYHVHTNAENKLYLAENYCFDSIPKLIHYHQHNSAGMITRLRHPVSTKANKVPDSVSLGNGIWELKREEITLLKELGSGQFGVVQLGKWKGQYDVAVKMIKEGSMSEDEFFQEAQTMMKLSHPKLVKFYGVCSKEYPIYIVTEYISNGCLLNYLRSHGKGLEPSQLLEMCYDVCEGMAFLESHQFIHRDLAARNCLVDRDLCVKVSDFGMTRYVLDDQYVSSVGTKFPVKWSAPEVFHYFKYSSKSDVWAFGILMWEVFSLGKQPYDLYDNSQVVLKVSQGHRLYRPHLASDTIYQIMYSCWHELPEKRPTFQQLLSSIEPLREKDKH

[2] = target: 5-hydroxytryptamine receptor 2A (Homo sapiens, UniProt P28223); assay: Selectivity interaction (Lead profiling screen (Eurofins, panel of GPCRs, transporters, nuclear receptors, and other enzymes)) EUB0000320b HTR2A; conditions: at 10 µM
[3] = target: 5-hydroxytryptamine receptor 2B (Homo sapiens, UniProt P41595); assay: Selectivity interaction (Lead profiling screen (Eurofins, panel of GPCRs, transporters, nuclear receptors, and other enzymes)) EUB0000320b HTR2B; conditions: at 10 µM
[4] = target: 5-hydroxytryptamine receptor 2C (Homo sapiens) (UniProt P28335); assay: Selectivity interaction (Lead profiling screen (Eurofins, panel of GPCRs, transporters, nuclear receptors, and other enzymes)) EUB0000320b HTR2C; conditions: at 10 µM
[5] = target: Casein kinase II subunit alpha' (Homo sapiens) (UniProt P19784); assay: Selectivity interaction (Kinase panel (Eurofins)) EUB0000320b CSNK2A2; conditions: at 1 µM
[6] = target: Kappa-type opioid receptor (Homo sapiens, UniProt P41145); assay: Selectivity interaction (Lead profiling screen (Eurofins, panel of GPCRs, transporters, nuclear receptors, and other enzymes)) EUB0000320b OPRK1; conditions: at 10 µM
[7] = target: T2, Alpha-1A adrenergic receptor (Homo sapiens) (UniProt P35348); assay: Selectivity interaction (Lead profiling screen (Eurofins, panel of GPCRs, transporters, nuclear receptors, and other enzymes)) EUB0000320b ADRA1A; conditions: at 10 µM
T2 sequence (whole entry): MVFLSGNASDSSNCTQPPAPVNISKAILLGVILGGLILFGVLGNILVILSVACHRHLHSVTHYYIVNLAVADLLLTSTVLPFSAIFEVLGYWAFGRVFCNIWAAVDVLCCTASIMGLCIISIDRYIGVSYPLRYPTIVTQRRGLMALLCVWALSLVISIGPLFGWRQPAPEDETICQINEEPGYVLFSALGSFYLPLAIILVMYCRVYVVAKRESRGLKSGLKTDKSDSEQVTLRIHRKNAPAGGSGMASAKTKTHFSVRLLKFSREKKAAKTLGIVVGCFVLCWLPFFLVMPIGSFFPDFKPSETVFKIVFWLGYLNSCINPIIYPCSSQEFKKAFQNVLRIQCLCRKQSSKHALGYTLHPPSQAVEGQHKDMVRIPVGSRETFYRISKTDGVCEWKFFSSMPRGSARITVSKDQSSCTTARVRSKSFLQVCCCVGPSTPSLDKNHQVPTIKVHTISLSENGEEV

[8] = tested on: Receptor-type tyrosine-protein kinase FLT3 (Homo sapiens), P36888 [UNDEFINED MUTATION]; assay: Selectivity interaction (KinomeScan (DiscoverX)) EUB0000320b FLT3; conditions: at 1 µM
[9] = target: T3, Myosin-IIIb (Homo sapiens) (UniProt Q8WXR4); assay: Selectivity interaction (KinomeScan (DiscoverX)) EUB0000320b MYO3B; conditions: at 1 µM
T3 sequence (whole entry): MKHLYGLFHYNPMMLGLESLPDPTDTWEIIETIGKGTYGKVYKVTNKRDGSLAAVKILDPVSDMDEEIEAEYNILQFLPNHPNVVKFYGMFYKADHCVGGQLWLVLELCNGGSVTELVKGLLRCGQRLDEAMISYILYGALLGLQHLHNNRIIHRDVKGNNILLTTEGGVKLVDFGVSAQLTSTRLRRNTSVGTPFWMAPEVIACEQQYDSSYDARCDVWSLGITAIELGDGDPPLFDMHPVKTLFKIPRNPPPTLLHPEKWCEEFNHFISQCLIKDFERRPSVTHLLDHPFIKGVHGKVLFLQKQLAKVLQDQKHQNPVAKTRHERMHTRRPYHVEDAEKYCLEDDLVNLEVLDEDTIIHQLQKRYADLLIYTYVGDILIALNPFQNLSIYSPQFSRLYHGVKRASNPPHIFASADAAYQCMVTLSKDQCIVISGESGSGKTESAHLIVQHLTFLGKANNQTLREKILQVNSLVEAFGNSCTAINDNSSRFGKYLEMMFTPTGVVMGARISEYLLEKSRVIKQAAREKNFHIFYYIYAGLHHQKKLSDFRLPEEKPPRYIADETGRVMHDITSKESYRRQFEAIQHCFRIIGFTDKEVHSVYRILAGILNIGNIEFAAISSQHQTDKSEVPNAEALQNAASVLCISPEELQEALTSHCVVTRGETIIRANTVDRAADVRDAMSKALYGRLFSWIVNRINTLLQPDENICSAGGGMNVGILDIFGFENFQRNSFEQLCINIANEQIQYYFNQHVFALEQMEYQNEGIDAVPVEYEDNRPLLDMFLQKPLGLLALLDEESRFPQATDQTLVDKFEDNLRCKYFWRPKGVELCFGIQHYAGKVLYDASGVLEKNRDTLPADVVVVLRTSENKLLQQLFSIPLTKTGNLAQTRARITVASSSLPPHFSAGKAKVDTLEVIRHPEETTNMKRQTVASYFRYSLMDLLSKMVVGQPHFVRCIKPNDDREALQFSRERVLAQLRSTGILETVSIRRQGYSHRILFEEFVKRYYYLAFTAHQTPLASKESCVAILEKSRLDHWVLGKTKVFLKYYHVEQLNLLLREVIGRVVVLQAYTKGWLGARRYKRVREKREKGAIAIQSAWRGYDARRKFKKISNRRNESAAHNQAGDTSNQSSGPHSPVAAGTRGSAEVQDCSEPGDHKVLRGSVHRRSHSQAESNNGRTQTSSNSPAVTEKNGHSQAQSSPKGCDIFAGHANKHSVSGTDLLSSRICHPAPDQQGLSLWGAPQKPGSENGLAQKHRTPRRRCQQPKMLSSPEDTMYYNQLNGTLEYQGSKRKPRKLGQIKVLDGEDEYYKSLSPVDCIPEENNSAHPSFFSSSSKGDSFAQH

[10] = target: Serine/threonine-protein kinase 33 (Homo sapiens, UniProt Q9BYT3); assay: Selectivity interaction (KinomeScan (DiscoverX)) EUB0000320b STK33; conditions: at 1 µM
[11] = target: Serine/threonine-protein kinase ULK3 (Homo sapiens) (UniProt Q6PHR2); assay: Selectivity interaction (KinomeScan (DiscoverX)) EUB0000708a ULK3; conditions: at 1 µM
[12] = target: Serine/threonine-protein kinase SBK1 (Homo sapiens) (UniProt Q52WX2); assay: Selectivity interaction (KinomeScan (DiscoverX)) EUB0000708a SBK1; conditions: at 1 µM
[13] = target: T4, Muscarinic acetylcholine receptor M2 (Homo sapiens) (UniProt P08172); assay: Selectivity interaction (GPCR panel (PDSP screen)) EUB0000333a CHRM2; conditions: at 10 µM
T4 sequence (whole entry): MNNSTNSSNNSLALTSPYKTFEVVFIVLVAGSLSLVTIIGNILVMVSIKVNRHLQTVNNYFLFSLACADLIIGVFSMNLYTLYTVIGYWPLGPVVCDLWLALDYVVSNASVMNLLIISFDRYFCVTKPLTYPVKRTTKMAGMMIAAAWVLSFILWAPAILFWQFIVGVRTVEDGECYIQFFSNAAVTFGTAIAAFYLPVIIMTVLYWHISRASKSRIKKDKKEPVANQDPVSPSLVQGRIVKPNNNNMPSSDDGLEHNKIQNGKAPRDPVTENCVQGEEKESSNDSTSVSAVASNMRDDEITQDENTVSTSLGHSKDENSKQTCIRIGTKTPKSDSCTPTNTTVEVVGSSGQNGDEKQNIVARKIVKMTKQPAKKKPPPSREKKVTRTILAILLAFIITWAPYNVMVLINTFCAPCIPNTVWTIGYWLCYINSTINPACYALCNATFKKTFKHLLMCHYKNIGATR

[14] = target: T5, Sigma intracellular receptor 2 (Homo sapiens, UniProt Q5BJF2); assay: Selectivity interaction (GPCR panel (PDSP screen)) EUB0000333a TMEM97; conditions: at 10 µM
[15] = target: P2Y purinoceptor 2 (Homo sapiens) (UniProt P41231); assay: Selectivity interaction (GPCR panel (Eurofins-Cerep)) EUB0000333a P2RY2; conditions: at 10 µM
[16] = target: eIF-2-alpha kinase GCN2 (Homo sapiens) (UniProt Q9P2K8); assay: Selectivity interaction (KinomeScan (DiscoverX)) EUB0000333a EIF2AK4; conditions: at 1 µM
[17] = target: Serine/threonine-protein kinase ICK (Homo sapiens) (UniProt Q9UPZ9); assay: Selectivity interaction (KinomeScan (DiscoverX)) EUB0000333a ICK; conditions: at 1 µM
[18] = target: 5-hydroxytryptamine receptor 3A (Homo sapiens) (UniProt P46098); assay: Selectivity interaction (GPCR panel (PDSP screen)) EUB0000293b HTR3A; conditions: at 10 µM
[19] = target: Prostaglandin E2 receptor EP4 subtype (Homo sapiens, UniProt P35408); assay: Selectivity interaction (Eurofins-Panlabs radioligand binding assay ) EUB0000293b PTGER4; conditions: at 10 µM
[20] = target: T5, Sigma intracellular receptor 2; assay: Selectivity interaction (GPCR panel (PDSP screen)) EUB0000251b TMEM97; conditions: at 10 µM
Histamine H1 receptor = Histamine H1 receptor (Homo sapiens, UniProt P35367); assay: Selectivity interaction (GPCR panel (PDSP screen)) EUB0000251b HRH1; conditions: at 10 µM
[21] = tested on: Phosphatidylinositol 4,5-bisphosphate 3-kinase catalytic subunit alpha isoform (Homo sapiens), P42336 [Q546K]; assay: (§1) Selectivity interaction (KinomeScan (DiscoverX)) EUB0000251b PIK3CA; conditions: at 1 µM
[22] = tested on: Phosphatidylinositol 4,5-bisphosphate 3-kinase catalytic subunit alpha isoform (Homo sapiens), P42336 [E542K]; assay: as §1; conditions: at 1 µM
[23] = target: 5-hydroxytryptamine receptor 2C (Homo sapiens) (UniProt P28335); assay: Selectivity interaction (GPCR panel (PDSP screen)) EUB0000737a HTR2C; conditions: at 10 µM

Chain of 5-hydroxytryptamine receptor 2C (Homo sapiens) (P28335 whole entry): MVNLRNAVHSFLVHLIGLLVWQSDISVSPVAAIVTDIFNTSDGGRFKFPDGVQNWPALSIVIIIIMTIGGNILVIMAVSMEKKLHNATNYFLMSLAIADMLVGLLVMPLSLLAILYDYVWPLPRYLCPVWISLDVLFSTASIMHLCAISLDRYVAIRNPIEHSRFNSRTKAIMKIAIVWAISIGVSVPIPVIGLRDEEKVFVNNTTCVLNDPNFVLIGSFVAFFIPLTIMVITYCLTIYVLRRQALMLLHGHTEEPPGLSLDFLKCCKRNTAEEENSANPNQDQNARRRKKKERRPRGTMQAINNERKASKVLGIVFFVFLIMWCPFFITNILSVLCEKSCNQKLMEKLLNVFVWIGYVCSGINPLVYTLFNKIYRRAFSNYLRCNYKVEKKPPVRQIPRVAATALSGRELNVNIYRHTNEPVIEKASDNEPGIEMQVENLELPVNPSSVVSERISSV
T5 sequence (Q5BJF2 whole entry): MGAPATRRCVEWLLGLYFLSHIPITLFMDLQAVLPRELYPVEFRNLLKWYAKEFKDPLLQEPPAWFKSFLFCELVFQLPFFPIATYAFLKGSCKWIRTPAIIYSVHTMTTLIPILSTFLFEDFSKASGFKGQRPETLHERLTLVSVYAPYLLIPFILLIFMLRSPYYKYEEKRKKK
Chain of Serine/threonine-protein kinase 33 (Q9BYT3 whole entry, looked up): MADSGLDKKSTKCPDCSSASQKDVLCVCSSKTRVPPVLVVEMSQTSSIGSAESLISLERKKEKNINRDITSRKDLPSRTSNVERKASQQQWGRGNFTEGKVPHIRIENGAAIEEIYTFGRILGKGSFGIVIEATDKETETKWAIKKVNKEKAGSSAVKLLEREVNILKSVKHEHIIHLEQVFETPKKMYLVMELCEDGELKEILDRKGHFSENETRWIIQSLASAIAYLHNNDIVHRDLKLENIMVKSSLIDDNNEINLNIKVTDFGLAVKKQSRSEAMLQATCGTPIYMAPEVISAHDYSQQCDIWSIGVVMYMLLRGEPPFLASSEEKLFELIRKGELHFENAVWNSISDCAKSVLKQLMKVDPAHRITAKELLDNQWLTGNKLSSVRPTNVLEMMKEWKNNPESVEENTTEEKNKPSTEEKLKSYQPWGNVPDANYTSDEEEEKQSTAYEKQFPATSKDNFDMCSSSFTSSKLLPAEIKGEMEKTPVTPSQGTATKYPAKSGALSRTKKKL
Chain of Phosphatidylinositol 4,5-bisphosphate 3-kinase catalytic subunit alpha isoform (Homo sapiens), P42336 [E542K] (P42336 whole entry E542K, canonical isoform): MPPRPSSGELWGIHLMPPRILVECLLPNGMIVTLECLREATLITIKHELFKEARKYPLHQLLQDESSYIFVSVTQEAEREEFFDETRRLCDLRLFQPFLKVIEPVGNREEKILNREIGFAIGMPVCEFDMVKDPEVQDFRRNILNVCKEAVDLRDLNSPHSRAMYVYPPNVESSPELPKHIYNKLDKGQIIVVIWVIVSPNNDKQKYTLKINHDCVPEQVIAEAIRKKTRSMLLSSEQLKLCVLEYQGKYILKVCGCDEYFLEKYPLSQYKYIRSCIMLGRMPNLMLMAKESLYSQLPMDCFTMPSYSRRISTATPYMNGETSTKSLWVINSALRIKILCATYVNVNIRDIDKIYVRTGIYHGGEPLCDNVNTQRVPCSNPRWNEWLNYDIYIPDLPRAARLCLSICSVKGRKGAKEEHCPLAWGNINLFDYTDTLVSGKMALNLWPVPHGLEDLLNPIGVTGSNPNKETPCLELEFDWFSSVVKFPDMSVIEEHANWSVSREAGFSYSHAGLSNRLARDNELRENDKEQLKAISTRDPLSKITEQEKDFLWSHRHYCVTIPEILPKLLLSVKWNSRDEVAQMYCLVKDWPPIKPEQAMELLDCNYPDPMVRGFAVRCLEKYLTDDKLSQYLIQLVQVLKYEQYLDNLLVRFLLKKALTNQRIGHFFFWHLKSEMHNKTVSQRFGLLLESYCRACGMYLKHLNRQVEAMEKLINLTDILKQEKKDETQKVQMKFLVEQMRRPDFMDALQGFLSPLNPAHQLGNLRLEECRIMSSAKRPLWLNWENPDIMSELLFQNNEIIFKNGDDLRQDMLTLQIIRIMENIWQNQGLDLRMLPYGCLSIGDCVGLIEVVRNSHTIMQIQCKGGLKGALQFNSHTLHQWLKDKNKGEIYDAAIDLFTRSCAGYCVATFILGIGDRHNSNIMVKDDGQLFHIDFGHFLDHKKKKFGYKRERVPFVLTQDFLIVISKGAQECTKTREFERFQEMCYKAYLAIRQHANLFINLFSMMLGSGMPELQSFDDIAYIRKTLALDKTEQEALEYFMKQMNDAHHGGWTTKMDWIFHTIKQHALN
Chain of Phosphatidylinositol 4,5-bisphosphate 3-kinase catalytic subunit alpha isoform (Homo sapiens), P42336 [Q546K] (P42336 whole entry Q546K, canonical isoform): as the sequence (P42336 whole entry E542K, canonical isoform) above, with K542E, Q546K counted along it
Chain of Serine/threonine-protein kinase ICK (Homo sapiens) (Q9UPZ9 whole entry): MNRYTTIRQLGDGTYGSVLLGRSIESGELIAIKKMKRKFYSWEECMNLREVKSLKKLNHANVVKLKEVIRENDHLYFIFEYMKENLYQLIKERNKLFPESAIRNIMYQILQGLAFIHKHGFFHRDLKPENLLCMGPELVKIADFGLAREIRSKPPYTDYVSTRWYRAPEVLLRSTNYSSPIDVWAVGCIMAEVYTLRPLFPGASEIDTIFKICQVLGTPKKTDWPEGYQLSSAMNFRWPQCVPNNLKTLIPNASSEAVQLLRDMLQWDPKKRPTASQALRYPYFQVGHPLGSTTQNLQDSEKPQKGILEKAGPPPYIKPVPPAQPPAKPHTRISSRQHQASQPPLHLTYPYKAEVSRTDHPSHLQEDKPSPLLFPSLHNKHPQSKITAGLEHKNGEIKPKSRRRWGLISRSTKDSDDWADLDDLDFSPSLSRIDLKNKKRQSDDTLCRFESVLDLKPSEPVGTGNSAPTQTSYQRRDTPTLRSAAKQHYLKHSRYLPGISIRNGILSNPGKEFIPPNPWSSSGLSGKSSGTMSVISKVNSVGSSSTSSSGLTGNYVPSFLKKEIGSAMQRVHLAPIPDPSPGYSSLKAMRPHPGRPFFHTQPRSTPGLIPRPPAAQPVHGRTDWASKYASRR
Chain of Casein kinase II subunit alpha' (Homo sapiens) (P19784 whole entry, looked up): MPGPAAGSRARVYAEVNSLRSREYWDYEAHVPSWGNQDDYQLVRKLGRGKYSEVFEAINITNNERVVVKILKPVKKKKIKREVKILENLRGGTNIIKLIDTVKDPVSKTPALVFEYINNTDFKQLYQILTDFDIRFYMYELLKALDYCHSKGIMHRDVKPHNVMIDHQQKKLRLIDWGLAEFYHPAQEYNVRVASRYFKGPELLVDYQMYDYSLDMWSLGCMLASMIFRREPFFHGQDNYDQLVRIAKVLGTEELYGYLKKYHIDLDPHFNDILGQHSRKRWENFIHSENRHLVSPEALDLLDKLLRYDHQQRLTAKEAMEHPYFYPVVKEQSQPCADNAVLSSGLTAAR
Chain of 5-hydroxytryptamine receptor 3A (Homo sapiens) (P46098 whole entry): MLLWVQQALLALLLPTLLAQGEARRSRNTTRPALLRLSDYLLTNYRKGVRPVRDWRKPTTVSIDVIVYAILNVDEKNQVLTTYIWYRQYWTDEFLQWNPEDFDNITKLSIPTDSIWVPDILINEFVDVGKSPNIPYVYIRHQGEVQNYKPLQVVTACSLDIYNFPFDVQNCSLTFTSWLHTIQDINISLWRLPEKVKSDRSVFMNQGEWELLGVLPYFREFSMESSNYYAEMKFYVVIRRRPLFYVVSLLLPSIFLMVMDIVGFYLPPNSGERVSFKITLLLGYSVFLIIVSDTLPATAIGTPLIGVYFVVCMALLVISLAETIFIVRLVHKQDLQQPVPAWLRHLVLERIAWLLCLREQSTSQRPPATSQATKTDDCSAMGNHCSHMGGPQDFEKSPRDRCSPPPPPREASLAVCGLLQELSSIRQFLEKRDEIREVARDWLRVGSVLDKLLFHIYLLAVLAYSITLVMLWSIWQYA
Chain of Prostaglandin E2 receptor EP4 subtype (P35408 whole entry): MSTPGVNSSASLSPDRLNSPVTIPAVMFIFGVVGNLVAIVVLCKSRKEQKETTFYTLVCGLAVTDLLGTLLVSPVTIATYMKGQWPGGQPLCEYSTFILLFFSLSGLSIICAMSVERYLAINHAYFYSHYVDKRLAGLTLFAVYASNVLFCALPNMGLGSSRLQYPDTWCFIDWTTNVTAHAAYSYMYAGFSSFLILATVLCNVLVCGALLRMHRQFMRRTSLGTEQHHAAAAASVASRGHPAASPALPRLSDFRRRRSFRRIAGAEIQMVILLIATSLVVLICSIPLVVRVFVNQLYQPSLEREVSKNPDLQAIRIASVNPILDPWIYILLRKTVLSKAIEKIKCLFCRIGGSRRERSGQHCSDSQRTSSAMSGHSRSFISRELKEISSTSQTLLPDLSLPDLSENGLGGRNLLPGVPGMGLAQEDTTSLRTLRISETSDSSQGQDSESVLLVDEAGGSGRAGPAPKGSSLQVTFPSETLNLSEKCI
Chain of Serine/threonine-protein kinase SBK1 (Homo sapiens) (Q52WX2 whole entry): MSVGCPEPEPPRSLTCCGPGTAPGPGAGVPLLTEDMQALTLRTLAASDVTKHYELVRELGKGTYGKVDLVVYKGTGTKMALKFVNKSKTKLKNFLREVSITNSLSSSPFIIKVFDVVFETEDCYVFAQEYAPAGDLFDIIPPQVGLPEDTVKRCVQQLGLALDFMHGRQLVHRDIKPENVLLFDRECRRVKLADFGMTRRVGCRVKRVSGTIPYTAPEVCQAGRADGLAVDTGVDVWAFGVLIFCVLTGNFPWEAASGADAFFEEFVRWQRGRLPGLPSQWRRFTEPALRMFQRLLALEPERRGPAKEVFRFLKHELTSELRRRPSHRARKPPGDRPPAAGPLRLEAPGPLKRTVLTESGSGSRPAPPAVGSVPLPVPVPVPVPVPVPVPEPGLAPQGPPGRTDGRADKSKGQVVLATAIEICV

Compound: CNCc1ccccc1-c1csc([C@@H](C)Nc2nc(C)nc3cc(OC)c(OC)cc23)c1
% of control [1]: 49% | % of inhibition [2]: 110% | % of inhibition [3]: 100% | % of inhibition [4]: 104% | % of control [5]: 67% | % of inhibition [6]: 105% | % of inhibition [7]: 106% | % of control [8]: 48% | % of control [9]: 47% | % of control [10]: 45%

Compound: Cc1noc([C@H]2C[C@@H](c3ccc(C(F)(F)F)cc3)CN(C(=O)N3CCS(=O)(=O)C3)C2)n1
inhibition [13]: 39% | inhibition [14]: 42% | inhibition [15]: 29% | % of control [16]: 28% | % of control [17]: 62%

Compound: CC1=C(C#N)C(c2ccc3[nH]nc(C)c3c2)C(C#N)=C(C)N1
% of control [18]: 33% | % of inhibition [19]: 19%

Compound: Cc1c(NC(=O)c2cc(C(N)=O)nc3cc(F)ccc23)c(C(F)(F)F)nn1Cc1ccc(C(C)(C)C)cc1
% of inhibition [20]: 41% | % of inhibition (Histamine H1 receptor): 46% | % of control [21]: 32% | % of control [22]: 43%

Further lines, results first:

% of control [11]: 46% | % of control [12]: 40%
Compound: Cc1nc(C2CCN(C(=O)c3ccc(OC(F)(F)F)cc3N)CC2)c2ncc(N3CCN(C)CC3)cc2n1

% of inhibition [23]: 29%
Compound: CC(=O)C1=C(C)N(c2cccc(C(F)(F)F)c2)C(=O)N[C@H]1c1ccc(C#N)nc1
